One experiment has as its system carrageenin edema. Description: Anti-inflammatory activity, carrageenin edema method. The following applies: for inhibition in vivo at 25 mg/kg: Rattus norvegicus, po. It counts as in vivo, Wistar strain rat. From the text:
The carrageenin edema method was employed using Wistar strain rat. [C. A. Winter, E. A. Risley, G. W. Nuss; J. Pharmacol. Exp. Therap., 141, 369(1963)]
A general note: The carrageenan paw model is a standard test of acute inflammation.

In a further experiment the test system is thermally induced pain. Put plainly: Analgesic activity, thermally induced pain method. It counts as in vivo, Wistar strain rat. The following applies: for inhibition in vivo at 19 mg/kg: Rattus norvegicus, po, 19 mg/kg P.O.; for Inhibition(%) Analgesic 19 mg/kg (P.O.): rat. An excerpt:
[Y. Iizuka, K. Tanaka; Folia Pharmacol. Jap., 70, 697(1974)]

One may read the inhibition in vivo as how much of the control response was suppressed.

SMILES strings stand for the structures. Structures can show the parent of a compound that is named as a salt.

As for `CC(C(=O)O)c1ccc(CC2CCCC2=O)cc1` (stereo not shown) [2-[4-(2-Oxocyclopentan-1-ylmethyl)phenyl]-propionic Acid], 25 mg/kg produced 51.4% inhibition in vivo with carrageenin edema (25 mg/kg P.O.). `CC(C(=O)O)c1ccc(CC2CCCC2=NO)cc1` (stereo not shown) [2-[4-(2-Hydroxyiminocyclopentan-1-ylmethyl)phenyl]propionic Acid] came in with an inhibition in vivo at 19 mg/kg in the experiment on thermally induced pain of 70%. In the experiment on carrageenin edema (25 mg/kg P.O.), this compound yielded an inhibition in vivo at 25 mg/kg of 67.4%. The corresponding values for `CC(C(=O)O)c1ccc(CC2CCCCC2=O)cc1` (stereo not shown) [2-[4-(2-Oxocyclohexan-1-ylmethyl)phenyl]-propionic Acid] are 63.3% and 79.9%.

In the experiment on thermally induced pain, `O=C(O)Cc1ccc(CC2CCCC2=O)cc1` (stereo not shown) [4-(2-Oxocyclopentan-1-ylmethyl)phenylacetic Acid] came in with an inhibition in vivo at 19 mg/kg of 42.5%. The compound also displayed an inhibition in vivo at 25 mg/kg in the experiment on carrageenin edema (25 mg/kg P.O.) of 65.6%. In the experiment on thermally induced pain, `CCCCC1C(=O)N(c2ccccc2)N(c2ccccc2)C1=O` [Phenylbutazone, reference compound] yielded an inhibition in vivo at 19 mg/kg of 37%. Also, the inhibition in vivo at 25 mg/kg in the experiment on carrageenin edema (25 mg/kg P.O.) is 30.6%. For the same compound, in the experiment on carrageenin edema (rat, 100 mg/kg (P.O.), reference medicine), the “Inhibition(%) Anti-inflammatory (100 mg/kg)” value was determined as 57.4%. Take `O=C(O)Cc1ccc(CC2CCCC2=NO)cc1` (single isomer, unassigned) [4-(2-Hydroxyiminocyclopentan-1-ylmethyl)phenylacetic Acid]: testing at 19 mg/kg with thermally induced pain gave an inhibition in vivo of 54.8%. Also, the inhibition in vivo at 25 mg/kg with carrageenin edema (25 mg/kg P.O.) was 49.7%. With `CC(C(=O)O)c1ccc(CC2CCCC2=O)cc1` [2-(4-(2-Oxocyclopentan-1-ylmethyl)phenyl)-propionic acid I-a] [2-[4-(2-Oxocyclopentan-1-ylmethyl)phenyl]-propionic Acid L-Arginine Salt], the “Inhibition(%) Analgesic 19 mg/kg (P.O.)” value with thermally induced pain is 66.7%. Also, the “Inhibition(%) Anti-inflammatory 25 mg/kg (P.O.)” value in the experiment with carrageenin edema (rat, 25 mg/kg P.O.) is given as 69.8%. The compound `O=C(O)Cc1ccc(CC2CCCCC2=O)cc1` (stereo not shown) [4-(2-Oxocyclohexan-1-ylmethyl)phenylacetic Acid] showed an inhibition in vivo at 19 mg/kg in the experiment on thermally induced pain of 45.1%. In addition, the inhibition in vivo at 25 mg/kg in the experiment on carrageenin edema (25 mg/kg P.O.) is 35.1%. Compound `CC(C(=O)O)c1ccc(CC2CCCCC2=NO)cc1` (stereo not shown) [2-[4-(2-Hydroxyiminocyclohexan-1-ylmethyl)phenyl]propionic Acid] displayed an inhibition in vivo at 19 mg/kg in the experiment on thermally induced pain of 53.1%. Moreover, testing at 25 mg/kg in the experiment with carrageenin edema (25 mg/kg P.O.) gave an inhibition in vivo of 78.2%.

For the compound `CC(C(=O)O)c1ccc(CC2CCCC2=O)cc1` (stereo not shown) [2-(4-(2-Oxocyclopentan-1-ylmethyl)phenyl)-propionic acid] [2-[4-(2-Oxocyclopentan-1-ylmethyl)phenyl]-propionic Acid], the “Inhibition(%) Analgesic 19 mg/kg (P.O.)” value in the experiment on thermally induced pain was determined as 95.8%.

Values taken from patent US4161538A, “Substituted phenylacetic acid derivatives and process for the preparation thereof” (Sankyo Company Limited, priority 1977, dated 1979).
